From EP1612281A2, “Methods for assessing patients with acute myeloid leukemia” (Veridex, LLC, priority 2004, dated 2006)

Test system: patients with relapsed or refractory AML
Assay: Open label, multicenter, non-comparative phase 2 clinical study of tipifarnib with gene expression profiling
Format: in vivo, human
Protocol: The current study was part of an open label, multicenter, non-comparative phase 2 clinical study in which patients with relapsed or refractory AML (Harousseau et al. (2003)) were treated with tipifarnib at a starting oral dose of 600 mg bid for the first 21 consecutive days of each 28-day cycle. Patients were enrolled into 2 cohorts, those with relapsed AML and those with refractory AML. A total of 252 patients (135 relapsed and 117 refractory) were treated. Eighty patients chose to provide bone marrow samples for RNA microarray analysis, for which a separate informed consent was required. […] Complete remission with incomplete platelet recovery was defined similarly, except for a platelet count less than 100,000/µL sufficient to ensure transfusion independence. Partial remission was defined as at least a 50% decrease in bone marrow blasts with partial neutrophil (>500/µL) and platelet count (>50,000/µL) recovery. Response had to be confirmed at least 4 weeks after first documentation.
The current study was an open label, multicenter, non-comparative Phase 2 study investigating the efficacy and safety of farnesyl transferase inhibition with tipifarnib administered as a single agent, at a starting oral dose of 600 mg b.i.d. for the first 21 days of each 28 day cycle in AML. Subjects were enrolled into two cohorts, those with relapsed AML and those with refractory AML. A total of 252 patients (135 relapsed and 117 refractory) were treated.

Cn1cncc1[C@@](N)(c1ccc(Cl)cc1)c1ccc2c(c1)c(-c1cccc(Cl)c1)cc(=O)n2C [tipifarnib]
response rate (current patient population (10/54), stable disease patients excluded): 18%
response rate (entire group of 58 profiled patients (14/58), response includes objective response, hematological response or stable disease): 24%
response rate (patients with low expression of AKAP13 (8/26), stable disease patients excluded): 31%
response rate (patients with low expression of the AKAP13 gene (13/30), LOOCV, 58 samples): 43%
response rate (patients with the 3-gene signature (AHR, AKAP13, MINA53) (12/25), LOOCV): 48%
